From US20260297070A1, “CYCLIC [COMPOUND LEFT OUT] WRN INHIBITORS” (Nimbus Wadjet, Inc., priority 2023, published 2026)
pIC50: −log10 of the molar value.

molecular target: T1, human Werner helicase (WRN-BV08, Uniprot Q14191, amino acids 517-1235 with L1074F point mutation) (Homo sapiens, UniProt Q14191, L1074F); experiment: WRN (BV08) ADP-Glo Assay; format: biochemical; details: 0.15 nM WRN, 5 μM ATP, 0.1 nM DNA duplex, 15 min preincubation, 60 min at 25° C., pH 7.5, 1% DMSO; read-out: ADP-Glo_hWRN_IC50
T1 construct: Uniprot Q14191, amino acids 517-1235 with L1074F point mutation; TEV-cleavable 8×His (C, cleaved yes); made in house; host or cells: Sf9 insect cells (baculovirus)
In short: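 Helicase ATPase activity is measured at 25 °C over 60 min using 0.15 nM enzyme, 5 μM ATP and 0.1 nM DNA duplex, final DMSO 1%. ADP production is detected by luminescence, with IC50 derived by curve fitting.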

T1 sequence (Q14191 with tags, fused parts or gaps L1074F limits assumed): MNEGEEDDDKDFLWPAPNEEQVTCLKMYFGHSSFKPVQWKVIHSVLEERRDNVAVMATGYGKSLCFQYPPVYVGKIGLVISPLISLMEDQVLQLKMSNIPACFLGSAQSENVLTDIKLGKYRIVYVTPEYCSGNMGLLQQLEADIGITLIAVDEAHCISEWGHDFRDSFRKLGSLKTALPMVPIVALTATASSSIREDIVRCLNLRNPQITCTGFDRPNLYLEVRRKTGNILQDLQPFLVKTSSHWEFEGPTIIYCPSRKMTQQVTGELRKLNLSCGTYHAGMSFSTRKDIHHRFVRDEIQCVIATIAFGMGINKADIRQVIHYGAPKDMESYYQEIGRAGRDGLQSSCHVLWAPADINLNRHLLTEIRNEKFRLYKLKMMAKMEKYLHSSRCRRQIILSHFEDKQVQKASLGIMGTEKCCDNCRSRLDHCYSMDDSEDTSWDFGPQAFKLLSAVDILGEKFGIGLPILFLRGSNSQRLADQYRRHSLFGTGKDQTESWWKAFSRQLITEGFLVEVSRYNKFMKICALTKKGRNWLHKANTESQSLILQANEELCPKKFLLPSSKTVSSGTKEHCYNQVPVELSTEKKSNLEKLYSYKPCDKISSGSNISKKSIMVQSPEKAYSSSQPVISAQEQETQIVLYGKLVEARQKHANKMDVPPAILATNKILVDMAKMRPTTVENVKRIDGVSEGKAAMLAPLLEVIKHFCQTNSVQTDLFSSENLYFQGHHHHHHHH

`O=C(NC(Cc1c[nH]c2ccccc12)C(=O)N(Cc1ccncc1)C1C=CS(=O)(=O)C1)c1ccc(F)cc1` (single isomer, unassigned) [I-561] and `COC(C(=O)N(Cc1ccncc1)C1C=CS(=O)(=O)C1)c1ccc(-c2ccc(F)cc2)cc1` (single isomer, unassigned) [I-575, (2R*)-N-[(3R**)-1,1-dioxo-2,3-dihydro-1lambda6-thiophen-3-yl]-2-{4′-fluoro-[1,1′-biphenyl]-4-yl}-2-methoxy-N-[(pyridin-4-yl)methyl]acetamide] cannot be ordered by pIC50: < 4.30 for the first, < 4.30 for the second.

First: COc1cc(CN(C(=O)C(C(=O)N(C)C)c2ccc(-c3ccc(F)c(F)c3)cc2F)C2C=CS(=O)(=O)C2)ccn1 (single isomer, unassigned) [I-577, (2R**)-N-[(3R*)-1,1-dioxo-2,3-dihydro-1lambda6-thiophen-3-yl]-N-[(2-methoxypyridin-4-yl)methyl]-N′,N′-dimethyl-2-{3,3′,4′-trifluoro-[1,1′-biphenyl]-4-yl}propanediamide]
Second: COc1cc(CN(C(=O)C(OCC#N)c2ccc(-c3ccc(F)c(F)c3)cc2F)[C@@H]2C=CS(=O)(=O)C2)ccn1 (single isomer, unassigned) [I-686, (2R*)-2-(cyanomethoxy)-N-[(3R)-1,1-dioxo-2,3-dihydro-1lambda6-thiophen-3-yl]-N-[(2-methoxypyridin-4-yl)methyl]-2-{3,3′,4′-trifluoro-[1,1′-biphenyl]-4-yl}acetamide]
The pIC50 of the first is higher: > 6.30 for the first, 5.30 to 6.30 for the second.

First: COC(C(=O)N(Cc1ccnc(C(C)(C)O)c1)C1C=CS(=O)(=O)C1)c1ccc(-c2ccc(F)c(F)c2)cc1F (single isomer, unassigned) [I-578, (2R*)-N-[(3R**)-1,1-dioxo-2,3-dihydro-1lambda6-thiophen-3-yl]-N-{[2-(2-hydroxypropan-2-yl)pyridin-4-yl]methyl}-2-methoxy-2-{3,3′,4′-trifluoro-[1,1′-biphenyl]-4-yl}acetamide]
Second: CC(C)(O)c1cc(CN(C(=O)C(OC(F)F)c2ccc(-c3ccc(F)c(F)c3)cc2F)[C@@H]2C=CS(=O)(=O)C2)ccn1 (single isomer, unassigned) [I-632]
The pIC50 of the first is lower: 4.30 to 5.00 for the first, > 6.30 for the second. The second is the more potent here.

`O=C(Cn1cc(-c2ccc(F)cc2)cn1)N(Cc1nc(C2CC2)cs1)C1C=CS(=O)(=O)C1` (single isomer, unassigned) [I-601] and `O=C(Cn1cc(-c2ccc(F)c(F)c2)cn1)N(Cc1nc(C2CC2)cs1)C1C=CS(=O)(=O)C1` (single isomer, unassigned) [I-604] fall in the same range of pIC50: 5.30 to 6.30 for the first, 5.30 to 6.30 for the second.

`O=C(Cn1cc(-c2ccc(F)cc2)cn1)N(Cc1nc(C2CC2)cs1)C1C=CS(=O)(=O)C1` (single isomer, unassigned) [I-602] and `CC(C)(O)c1cc(CN(C(=O)Cn2cc(-c3ccc(C(F)F)cc3)cn2)C2C=CS(=O)(=O)C2)ccn1` (single isomer, unassigned) [I-639] cannot be ordered by pIC50: > 6.30 for the first, > 6.30 for the second.

`CC(C)(O)c1cc(CN(C(=O)Cn2ccc(-c3ccc(F)cc3)cc2=O)C2C=CS(=O)(=O)C2)ccn1` (single isomer, unassigned) [I-606] and `CC(C)(O)c1cc(CN(C(=O)Cn2cc(-c3ccc(C(F)(F)F)cc3)cn2)C2C=CS(=O)(=O)C2)ccn1` (single isomer, unassigned) [I-638] cannot be ordered by pIC50: > 6.30 for the first, > 6.30 for the second.

Compared with `Cc1cccn1-c1ccc2c(c1)CC(C(=O)N(Cc1ccnc(C(C)(C)O)c1)[C@@H]1C=CS(=O)(=O)C1)O2` (single isomer, unassigned) [I-607], `CC(C)(O)c1cc(CN(C(=O)Cc2ccc(C3(C(F)(F)F)CC3)cc2)C2C=CS(=O)(=O)C2)ccn1` (single isomer, unassigned) [I-663] is lower in pIC50: > 6.30 for the first, 5.30 to 6.30 for the second. The first is the more potent here.

First: CN(C)C(=O)OC(C(=O)N(Cc1ccnc(C(C)(C)O)c1)[C@@H]1C=CS(=O)(=O)C1)c1ccc(-c2ccc(F)c(F)c2)cc1F (single isomer, unassigned) [I-636]
Second: CNC(=O)C(C(=O)N(Cc1ccnc(C(C)(C)O)c1)C1C=CS(=O)(=O)C1)c1ccc(-c2ccc(F)c(F)c2)cc1F (single isomer, unassigned) [I-689, (2R**)-N′-[(3R*)-1,1-dioxo-2,3-dihydro-1lambda6-thiophen-3-yl]-N′-{[2-(2-hydroxypropan-2-yl)pyridin-4-yl]methyl}-N-methyl-2-{3,3′,4′-trifluoro-[1,1′-biphenyl]-4-yl}propanediamide]
The pIC50 of the first is lower: 4.30 to 5.00 for the first, > 6.30 for the second.

`C=CCOC(C(=O)N(Cc1ccnc(C(C)(C)O)c1)[C@@H]1C=CS(=O)(=O)C1)c1ccc(-c2ccc(F)c(F)c2)cc1F` (single isomer, unassigned) [I-641] and `CC(C)(O)c1cc(CN(C(=O)C(OC2CC2)c2ccc(-c3ccc(F)c(F)c3)cc2F)[C@@H]2C=CS(=O)(=O)C2)ccn1` (single isomer, unassigned) [I-681] cannot be ordered by pIC50: > 6.30 for the first, > 6.30 for the second.

`CC(C)(O)c1cc(CN(C(=O)Cc2ccc(OC(F)(F)C(F)(F)F)cc2)C2C=CS(=O)(=O)C2)ccn1` (single isomer, unassigned) [I-661] and `CC(C)(O)c1cc(CN(C(=O)Cc2ccc(C(F)(F)C(F)(F)F)cc2)C2C=CS(=O)(=O)C2)ccn1` (single isomer, unassigned) [I-673] cannot be ordered by pIC50: > 6.30 for the first, > 6.30 for the second.

Compared with `COC(C(=O)N(Cc1ccnc(C(C)(C)O)c1)C1C=CS(=O)(=O)C1)c1ccc(S(F)(F)(F)(F)F)cc1` (single isomer, unassigned) [I-664, (2R*)-N-[(3R**)-1,1-dioxo-2,3-dihydro-1lambda6-thiophen-3-yl]-N-{[2-(2-hydroxypropan-2-yl)pyridin-4-yl]methyl}-2-methoxy-2-[4-(pentafluoro-lambda6-sulfanyl)phenyl]acetamide], `COCC(C(=O)N(Cc1ccnc(C(C)(C)O)c1)[C@@H]1C=CS(=O)(=O)C1)c1ccc(S(F)(F)(F)(F)F)cc1` (single isomer, unassigned) [I-675] is lower in pIC50: > 6.30 for the first, 4.30 to 5.00 for the second.

First: COC(C(=O)N(Cc1ccnc(C(C)(C)O)c1)C1C=CS(=O)(=O)C1)c1ccc(S(F)(F)(F)(F)F)cc1 (single isomer, unassigned) [I-665, (2R*)-N-[(3R**)-1,1-dioxo-2,3-dihydro-1lambda6-thiophen-3-yl]-N-{[2-(2-hydroxypropan-2-yl)pyridin-4-yl]methyl}-2-methoxy-2-[4-(pentafluoro-lambda6-sulfanyl)phenyl]acetamide]
Second: CC(C)(O)c1cc(CN(C(=O)CCc2ccc(S(F)(F)(F)(F)F)cc2)C2C=CS(=O)(=O)C2)ccn1 (single isomer, unassigned) [I-674]
The pIC50 of the first is lower: 4.30 to 5.00 for the first, 5.00 to 5.30 for the second. The second is the more potent here.

`CC(C)(O)c1cc(CN(C(=O)C(c2ccc(-c3ccc(F)c(F)c3)cc2F)n2cccn2)C2C=CS(=O)(=O)C2)ccn1` (single isomer, unassigned) [I-669, (2R*)-N-[(3R**)-1,1-dioxo-2,3-dihydro-1lambda6-thiophen-3-yl]-N-{[2-(2-hydroxypropan-2-yl)pyridin-4-yl]methyl}-2-(1H-pyrazol-1-yl)-2-{3,3′,4′-trifluoro-[1,1′-biphenyl]-4-yl}acetamide] and `CC(C)(O)c1cc(CN(C(=O)C(c2ccc(-c3ccc(F)c(F)c3)cc2F)n2cccn2)[C@@H]2C=CS(=O)(=O)C2)ccn1` (single isomer, unassigned) [I-682] cannot be ordered by pIC50: > 6.30 for the first, > 6.30 for the second.

First: CC(C)(O)c1cc(CN(C(=O)C(c2ccc(-c3ccc(F)c(F)c3)cc2F)n2cccn2)C2C=CS(=O)(=O)C2)ccn1 (single isomer, unassigned) [I-670, (2R*)-N-[(3R**)-1,1-dioxo-2,3-dihydro-1lambda6-thiophen-3-yl]-N-{[2-(2-hydroxypropan-2-yl)pyridin-4-yl]methyl}-2-(1H-pyrazol-1-yl)-2-{3,3′,4′-trifluoro-[1,1′-biphenyl]-4-yl}acetamide]
Second: COc1cc(CN(C(=O)C(c2ccc(-c3ccc(F)c(F)c3)cc2F)n2cccn2)[C@@H]2C=CS(=O)(=O)C2)ccn1 (single isomer, unassigned) [I-671, (2R*)-N-[(3R)-1,1-dioxo-2,3-dihydro-1lambda6-thiophen-3-yl]-N-[(2-methoxypyridin-4-yl)methyl]-2-(1H-pyrazol-1-yl)-2-{3,3′,4′-trifluoro-[1,1′-biphenyl]-4-yl}acetamide]
The pIC50 of the first is lower: 5.30 to 6.30 for the first, > 6.30 for the second. The second is the more potent here.

Compared with `COc1cc(CN(C(=O)C(c2ccc(-c3ccc(F)c(F)c3)cc2F)n2cccn2)[C@@H]2C=CS(=O)(=O)C2)ccn1` (single isomer, unassigned) [I-672, (2R*)-N-[(3R)-1,1-dioxo-2,3-dihydro-1lambda6-thiophen-3-yl]-N-[(2-methoxypyridin-4-yl)methyl]-2-(1H-pyrazol-1-yl)-2-{3,3′,4′-trifluoro-[1,1′-biphenyl]-4-yl}acetamide], `COc1cc(CN(C(=O)C(c2ccc(-c3ccc(F)c(F)c3)cc2F)n2cc(OC(F)F)cn2)[C@@H]2C=CS(=O)(=O)C2)ccn1` (single isomer, unassigned) [I-685, (2R*)-2-[4-(difluoromethoxy)-1H-pyrazol-1-yl]-N-[(3R)-1,1-dioxo-2,3-dihydro-1lambda6-thiophen-3-yl]-N-[(2-methoxypyridin-4-yl)methyl]-2-{3,3′,4′-trifluoro-[1,1′-biphenyl]-4-yl}acetamide] is higher in pIC50: 5.00 to 5.30 for the first, > 6.30 for the second. The second is the more potent here.

First: CC(C)(O)c1cc(CN(C(=O)Cn2cc3cc(C(F)(F)F)ccc3n2)C2C=CS(=O)(=O)C2)ccn1 (single isomer, unassigned) [I-676]
Second: CNC(=O)C(C(=O)N(Cc1ccnc(C(C)(C)O)c1)C1C=CS(=O)(=O)C1)c1ccc(-c2ccc(F)c(F)c2)cc1F (single isomer, unassigned) [I-690, (2R**)-N′-[(3R*)-1,1-dioxo-2,3-dihydro-1lambda6-thiophen-3-yl]-N′-{[2-(2-hydroxypropan-2-yl)pyridin-4-yl]methyl}-N-methyl-2-{3,3′,4′-trifluoro-[1,1′-biphenyl]-4-yl}propanediamide]
The pIC50 of the first is higher: > 6.30 for the first, 5.30 to 6.30 for the second.
